Data as given in patent publication US20220120736A1, “METHODS AND ASSAYS FOR MODULATING GENE TRANSCRIPTION BY MODULATING CONDENSATES” (Whitehead Institute for Biomedical Research, priority 2018, published 2022).

Target: T1, OCT4 (FKBP-tagged) (Mus musculus, UniProt P20263+Q8C7D2)
T1 construct: an ESC line bearing endogenous knock-in of DNA encoding the FKBP protein fused to OCT4; HA (C); endogenous in cells; host or cells: V6.5 mouse ES cells (Med1-mEGFP background), homozygous Oct4-FKBP knock-in
Test: MED1 IF with DNA FISH at Nanog after OCT4 degradation
Format: cell-based
Conditions: dTag versus DMSO
Experimental: Immunofluorescence was performed as previously above. After incubating the cells with the secondary antibodies, cells were washed three times in PBS for 5 min at RT, fixed with 4% PFA in PBS for 10 min and washed three times in PBS. Cells were incubated in 70% ethanol, 85% ethanol and then 100% ethanol for 1 minute at RT. Probe hybridization mixture was made mixing 7 μL of FISH Hybridization Buffer (Agilent G9400A), 1 μl of FISH probes (see below for region) and 2 μL of water. 5 μL of mixture was added on a slide and coverslip was placed on top (cell-side toward the hybridization mixture). Coverslip was sealed using rubber cement. Once rubber cement solidified, genomic DNA and probes were denatured at 78° C. for 5 minutes and slides were incubated at 16° C. in the dark O/N. The coverslip was removed from slide and incubated in pre-warmed Wash buffer 1 (Agilent, G9401A) at 73° C. for 2 minutes and in Wash Buffer 2 (Agilent, G9402A) for 1 minute at RT. […]
For analysis of RNA FISH with immunofluorescence custom in-house MATLAB™ scripts were written to process and analyze 3D image data gathered in FISH (RNA/DNA) and IF channels. […] The IF signal centered at FISH foci for each FISH and IF pair are then combined and an average intensity projection is calculated, providing averaged data for IF signal intensity within a l×l square centered at FISH foci. […]

T1 sequence (P20263 with tags, fused parts or gaps): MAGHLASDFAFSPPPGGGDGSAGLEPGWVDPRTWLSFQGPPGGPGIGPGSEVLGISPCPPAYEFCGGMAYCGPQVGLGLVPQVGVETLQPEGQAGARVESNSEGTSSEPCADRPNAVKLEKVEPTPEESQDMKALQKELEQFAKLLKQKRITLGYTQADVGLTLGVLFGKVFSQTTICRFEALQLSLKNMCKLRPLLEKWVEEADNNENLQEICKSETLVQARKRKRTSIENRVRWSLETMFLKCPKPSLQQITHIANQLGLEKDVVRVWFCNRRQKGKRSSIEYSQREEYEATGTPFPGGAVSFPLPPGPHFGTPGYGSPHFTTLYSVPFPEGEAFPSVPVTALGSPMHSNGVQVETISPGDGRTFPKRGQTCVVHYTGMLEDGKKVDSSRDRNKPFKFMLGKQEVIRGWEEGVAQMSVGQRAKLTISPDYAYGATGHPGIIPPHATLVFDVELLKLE
T1 sequence (Q8C7D2 whole entry, the tested form may be a part): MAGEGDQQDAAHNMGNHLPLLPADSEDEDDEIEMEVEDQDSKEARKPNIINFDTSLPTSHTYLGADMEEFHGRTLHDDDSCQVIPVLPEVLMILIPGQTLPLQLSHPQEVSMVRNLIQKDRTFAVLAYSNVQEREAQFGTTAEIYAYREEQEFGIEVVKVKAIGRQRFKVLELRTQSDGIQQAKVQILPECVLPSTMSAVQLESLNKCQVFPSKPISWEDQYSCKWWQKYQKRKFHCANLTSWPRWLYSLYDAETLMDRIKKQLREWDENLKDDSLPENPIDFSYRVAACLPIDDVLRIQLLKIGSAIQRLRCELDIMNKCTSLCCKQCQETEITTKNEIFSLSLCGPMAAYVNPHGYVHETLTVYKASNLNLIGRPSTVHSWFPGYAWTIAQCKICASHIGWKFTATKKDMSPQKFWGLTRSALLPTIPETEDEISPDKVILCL
T1 sequence (Q3U1J4 whole entry partner, the tested form may be a part): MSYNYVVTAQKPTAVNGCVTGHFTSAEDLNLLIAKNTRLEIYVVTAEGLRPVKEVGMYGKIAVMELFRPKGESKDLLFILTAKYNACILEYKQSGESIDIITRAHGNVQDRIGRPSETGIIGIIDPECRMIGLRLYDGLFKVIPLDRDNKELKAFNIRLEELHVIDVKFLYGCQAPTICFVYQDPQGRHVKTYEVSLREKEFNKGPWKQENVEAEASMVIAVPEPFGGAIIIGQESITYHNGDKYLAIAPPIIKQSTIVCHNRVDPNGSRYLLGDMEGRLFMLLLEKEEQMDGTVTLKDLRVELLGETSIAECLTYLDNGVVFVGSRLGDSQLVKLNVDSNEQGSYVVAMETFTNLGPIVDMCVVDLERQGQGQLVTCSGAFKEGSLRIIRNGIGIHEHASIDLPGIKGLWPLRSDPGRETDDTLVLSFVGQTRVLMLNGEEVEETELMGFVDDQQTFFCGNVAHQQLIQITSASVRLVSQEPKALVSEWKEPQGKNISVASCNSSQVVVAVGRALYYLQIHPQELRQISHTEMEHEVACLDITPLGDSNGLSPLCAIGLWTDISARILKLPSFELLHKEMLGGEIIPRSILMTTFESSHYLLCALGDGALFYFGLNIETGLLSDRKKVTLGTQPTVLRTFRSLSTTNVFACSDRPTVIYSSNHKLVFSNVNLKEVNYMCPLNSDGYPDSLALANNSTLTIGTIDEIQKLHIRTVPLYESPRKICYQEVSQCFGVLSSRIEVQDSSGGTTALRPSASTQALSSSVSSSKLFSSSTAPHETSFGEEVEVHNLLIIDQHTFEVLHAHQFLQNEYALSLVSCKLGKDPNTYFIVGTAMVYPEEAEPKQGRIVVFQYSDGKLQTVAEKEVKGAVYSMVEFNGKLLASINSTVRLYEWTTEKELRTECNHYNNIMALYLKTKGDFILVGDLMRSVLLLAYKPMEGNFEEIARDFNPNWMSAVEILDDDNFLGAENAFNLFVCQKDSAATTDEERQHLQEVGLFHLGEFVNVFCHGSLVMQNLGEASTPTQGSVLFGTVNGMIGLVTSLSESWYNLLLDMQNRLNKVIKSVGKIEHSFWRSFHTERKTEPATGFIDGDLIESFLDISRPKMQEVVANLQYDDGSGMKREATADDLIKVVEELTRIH

CC[C@H](C(=O)N1CCCC[C@H]1C(=O)O[C@H](CCc1ccc(OC)c(OC)c1)c1ccccc1OCC(=O)NCCCCCCCCNc1ccc2c(c1)C(=O)N(C1CCC(=O)NC1=O)C2=O)c1cc(OC)c(OC)c(OC)c1 (stereo partly shown) [dTag]
MED1 condensates at Nanog: reduction in MED1 condensates at Nanog
